Measured values as given in US7982057B2, “Compound of stemphones and production thereof” (The Kitasato Institute, priority 2006, dated 2011).
In brackets after ≈: the same amount, converted by molar mass.

Columns and labels:
[1] = test system: methicillin resistant Staphylococcus aureus K24; assay: Enhancing effect for activity of imipenem by paper disk method; assay type: cell-based; settings: 10 μg disc, 37° C. for 20 hours; for inhibitory zone in the presence of imipenem: MHA medium with imipenem final concentration 10 μg/ml; for inhibitory zone, substance alone: MHA medium without imipenem
Description: Biological properties of compound of stemphones of the present invention are described in detail as follows. Method for evaluation of enhancing effect for activity of imipenem by paper disk method
Clinically isolated strain of methicillin resistant Staphylococcus aureus K24 was used as a test organism. Staphylococcus aureus was cultured in Mueller-Hinton broth (2.1% w/v) (DIFCO) at 37° C. for 20 hours, and was suspended corresponding to 0.5 Mc FARLAND (about 10^8 CFU/ml) in the same medium.
Smearing was performed by using sterilized cotton swab (Kawamoto Sangyo K.K., Japan) according to a method of National Committee for Laboratory Standard, NCCLS, U.S.A. Antibacterial activities against test organism on various media were expressed with a unit in mm of a diameter of inhibition zone after incubation with the paper disc (thin disc, […], ADVANTEC Inc.) method at 37° C. for 20 hours.

[2] = test system: Jurkat cells; assay: Cytotoxicity on Jurkat cells by MTT method; assay type: cell-based; settings: Homo sapiens, 48 hours
Description: Method for Evaluation of Cytotoxicity
Evaluation of cytotoxicity on Jurkat cells were performed by MTT method (Mosmaan, et al. J. Immunol. Methods, 65: 55-63, 1983). Cultured liquid of Jurkat cells were suspended in RPMI-1640 medium (Iwaki & Co., Ltd., Japan) to give suspension with 4×10^5 cells/ml, and the suspension 0.05 ml was seeded in each well of 96 well microplate (Corning Corp.). Subsequently, stemphone D substance, stemphone E substance, stemphone E1 substance, stemphone E2 substance, stemphone E3 substance or stemphone F substance (0.05 ml, 2% methanol/PRMI-1640 medium) was added and incubated at 37° C. for 48 hours in 5% carbon dioxide gas incubator. Then MTT reagent (SIGMA Inc.) dissolved in PBS to give concentration 5.5 mg/ml, 0.01 ml was added and reacted at 37° C. for 4 hours. After the reaction was performed, cell-lysing solution (40%, N-dimethylformamide (Kanto Chemical Co., Inc., Japan), 20% sodiumdodecyl sulfate (Wako Pure Chemical Industries, Ltd., Japan) 2% acetic acid (Kanto Chemical Co., Inc., Japan), 0.03% hydrochloric acid (Kanto Chemical Co., Inc., Japan) in purified water) 0.09 ml was added, and stirred at room temperature for 2 hours, then absorption at 550 nm was measured by using ELx 808 (BIO-TEK Instruments Inc.). As compared with stemphone C substance previously reported by the present inventor (ratio: 1.0), about 4-fold to 60-fold reduction of toxicity were confirmed.

[3] = Solubility in solvent; assay type: physicochemical

Row | Solubility in methanol and chloroform [3] | Solubility in water [3] | Compound | inhibitory zone in the presence of imipenem [1] [mm] | inhibitory zone, substance alone [1] | IC50 [2] [µg/mL]
1 | Soluble | insoluble | C/C=C(\C)C(OC(C)=O)C(C)C1=CC(=O)C2=C(OC3(C)CCC4OC(C(C)(C)O)CC(O)C4(C)C3=C2)C1=O (stereo not drawn) [stemphone E3 substance] | 20 | not observed | 2.6 (≈ 4.92 µM)
2 | Soluble | insoluble | C/C=C(\C)C(OC(C)=O)C(C)c1cc(O)c2c(c1O)OC1(C)CCC3OC(C(C)(C)O)CC(O)C3(C)C1C2O (stereo not drawn) [stemphone E substance] | 22 | not observed | 3.6 (≈ 6.56 µM)
3 | Soluble | insoluble | C/C=C(\C)C(OC(C)=O)C(C)c1cc(O)c2c(c1O)OC1(C)CCC3OC(C(C)(C)O)CC(O)C3(C)C1=C2 (stereo not drawn) [stemphone E2 substance] | 22 | not observed | 4.4 (≈ 8.29 µM)
4 | Soluble | insoluble | C/C=C(\C)C(OC(C)=O)C(C)c1cc(OC)c2c(c1O)OC1(C)CCC3OC(C(C)(C)O)CC(O)C3(C)C1C2O (stereo not drawn) [stemphone E1 substance] | 15 | not observed | 26.2 (≈ 46.6 µM)
5 | Soluble | insoluble | C/C=C(\C)C(OC(C)=O)C(C)C1=CC(=O)C2=C(OC3(C)CCC4OC(C(C)(C)O)CC(O)C4(C)C3C2O)C1(O)CC(C)=O (stereo not drawn) [stemphone F substance] | 20 | not observed | 2.7 (≈ 4.46 µM)
6 | Soluble | insoluble | C/C=C(\C)C(OC(C)=O)C(C)C1=CC(=O)C2=C(OC3(C)CCC4OC(C(C)(C)O)CC(O)C4(C)C3C2)C1=O (stereo not drawn) [stemphone D substance] | 25 | not observed | 1.8 (≈ 3.39 µM)
